{"source": "patent US12221422B2", "about": "“Compounds and their use for the treatment of alpha1-antitrypsin deficiency” (CENTESSA PHARMACEUTICALS (UK) LIMITED, priority 2018, dated 2025)", "key": {"[1]": {"test_system": "TA98, TA100, WP2 uvrA, TA1535, TA1537 bacterial strains", "test": "Bacterial reverse mutation test", "conditions": "up to 5000 μg/plate, presence and absence of S-9 mix", "experimental": "The purpose of the bacterial reverse mutation test is to assess the mutagenic potential of the test item by its ability to revert the specified bacterial strains from auxotrophic growth to prototrophy. The assay detects point (gene) mutations at specific histidine or tryptophan loci, which may be induced by compounds that cause base pair substitutions or frameshift mutations in the genome of these organisms. Assays were performed in the presence and absence of an exogenous mammalian oxidative metabolising system (S-9 mix, a liver post-mitochondrial fraction derived from the livers of Aroclor 1254 treated rats), to mimic mammalian metabolism. The test methodology was based on established procedures for bacterial mutagenicity testing.\nN,N-dimethyl-4-((6-oxopyrimidin-1(6H)-yl)methyl)benzamide was tested up to the guideline regulatory maximum dose level of 5000 μg/plate in all strains in the presence and absence of […].\nThere were no increases in revertant numbers, greater than the defined fold-increases (to twice the relevant negative control value for TA98, TA100 or WP2 uvrA or three times the relevant negative control value for TA1535 or TA1537), in any strain at any dose level of N,N-dimethyl-4-((6-oxopyrimidin-1(6H)-yl)methyl)benzamide, in the presence or absence of S-9 mix, under plate incorporation conditions."}, "[2]": {"molecular_target": "human Z A1AT (Homo sapiens, UniProt P01009, E366K)", "sequence (P01009 25-418 E366K)": "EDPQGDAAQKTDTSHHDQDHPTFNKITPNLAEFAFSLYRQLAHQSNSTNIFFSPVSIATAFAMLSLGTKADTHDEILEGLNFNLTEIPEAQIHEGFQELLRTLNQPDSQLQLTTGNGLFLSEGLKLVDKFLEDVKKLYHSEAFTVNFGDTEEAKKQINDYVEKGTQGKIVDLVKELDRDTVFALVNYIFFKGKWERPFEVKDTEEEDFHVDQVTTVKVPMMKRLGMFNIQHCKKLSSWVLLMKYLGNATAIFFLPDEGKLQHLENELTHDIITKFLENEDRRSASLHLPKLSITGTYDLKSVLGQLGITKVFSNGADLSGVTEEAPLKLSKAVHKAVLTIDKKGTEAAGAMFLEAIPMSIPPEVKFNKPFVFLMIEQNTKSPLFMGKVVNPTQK", "test": "Trypsin complex formation by human Z A1AT purified from plasma of treated huZ mice (Western blot)", "format": "biochemical, huZ mouse", "set-up": "from tissue; host or cells: huZ (PiZZ) transgenic mice, line Z11.03, C57Bl/6 background; made in liver, measured in plasma", "conditions": "Z A1AT purified from plasma of huZ mice treated at 200 mg/kg twice a day by oral gavage for 10 days", "experimental": "The aim of the experiment was to purify human Z A1AT from three HuZ mice which had been treated with compound N,N-dimethyl-4-((6-oxopyrimidin-1(6H)-yl)methyl)benzamide (22.1e, 24.1a, 24.1b), then test the activity of the A1AT by reaction with increasing amounts of trypsin. Reaction of A1AT with the trypsin was analysed by western blot, probing with an anti-human A1AT antibody. A control plasma from a wild type mouse treated with the same compound (15.5b) was also included in the study.\nMice were treated with N,N-dimethyl-4-((6-oxopyrimidin-[…]-yl)methyl)benzamide at 200 mg/kg twice a day by oral gavage for 10 consecutive days. Mice had access to food (standard mouse chow, SAFE diets) and water ad libitum. On study day 10, each mouse was dosed 3.5-4.5 hours prior to terminal procedures. […]\n100 μl of mouse plasma was diluted to 300 μl with 20 mM Tris, 150 mM NaCl, 5 mM EDTA, pH 7.4 (reaction and wash buffer) prior to purification. […] Residual A1AT in the plasma and plasma supernatant was quantified using a human serpinA1 ELISA (Human Serpin A1/α1-antitrypsin duo set ELISA, R& D Systems, DY1268) to confirm depletion of human A1AT. The concentration of the eluted fractions were also measured. The amount of eluted A1AT was determined by measuring by A280 using an extinction coefficient of 0.45. […]"}}, "data": [{"compound": "CN(C)C(=O)c1ccc(Cn2cnccc2=O)cc1", "note": "[N,N-dimethyl-4-((6-oxopyrimidin-1(6H)-yl)methyl)benzamide]", "values": [{"measurement": "mutagenicity (revertant numbers)", "setting": "[1]; all strains, plate incorporation", "result": "not mutagenic"}, {"measurement": "toxicity to bacterial strains", "setting": "[1]", "result": "no evidence of toxicity"}, {"measurement": "activity of eluted human Z A1AT (complex formation with trypsin)", "setting": "[2]", "result": "native and fully active"}]}]}
